Reference: patent US9802974B2, “Synthesis of diverse glycosylphosphatidylinositol glycans from Toxoplasma gondii and their application as vaccines and diagnostics” (Max-Planck-Gesellschaft zur Förderung der Wissenschaften …, priority 2012, dated 2017)

System: T. gondii tachyzoites
Assay: Immunofluorescence confocal microscopy of T. gondii tachyzoites with serum of mice immunized with the compound 4-CRM197 conjugate
Assay type: binding, Toxoplasma gondii
Conditions: paraformaldehyde-fixed tachyzoites, pooled serum from immunized mice, FIG. 13
Protocol: Full circle in (C) indicates the apical and half circle the basolateral end of the parasite (white bar=5 μm).
Extracellular tachyzoites collected from cell culture supernatants were fixed with 4% (w/v) paraformaldehyde in PBS for 30 min. Cells were washed three times with PBS, and incubated for 1 h with mice sera raised against compounds 3 or 4 diluted to 100 in PBS, 10% BSA. Cells were washed three times with PBS before incubated for 1 h with secondary FITC-conjugated anti-mouse immunoglobulin antibody (DakoCytomation, Glostrup) containing 10% BSA and washed finally three times with PBS. After three final washes with PBS, aliquot were spotted on microscope slides followed by a glass cover slides, mounted in Fluoroprep (Dako) and recorded by using a 100× Plan-NeoFluar oil objective lens with NA 1.30 using an Axiophot microscop (Zeiss).
In contrast, antibodies binding to the parasite in sera of mice before immunization could not be detected. […] Tachyzoites secrete factors for attachment, invasion and formation of the parasitophorous vacuole, which is surrounding and protecting the parasite inside the host cell from endocytosis, in a regulated fashion from the apical region. […]

6-O-(aminoethyl phosphono)-α-D-mannopyranosyl-(1→2)-α-D-mannopyranosyl-(1→6)-4-O-(α-D-glucopyranosyl-(1→4)-2-deoxy-2-acetamido-β-D-galactopyranosyl)-α-D-manno-pyranosyl-(1→4)-2-amino-2-deoxy-α-D-glucopyranosyl-(1→6)-1-O-(thiohexyl phosphono)-D-myo-inositol [compound 4]
recognition of the natural GPI antigen on the T. gondii parasite by antibodies raised against the substance: bound to the surface of the parasite
